In article PMC12528448, “Resistance to CDK7 inhibitors directed by acquired mutation of a conserved residue in cancer cells” (The EMBO Journal, 2025):
Several values for one entry are separate records, joined by “and”; a condition that tells them apart may be missing. Identical values can stand only once.

Key:
Assay type in all cases: cell-based, human
LNCaP cells = test: Growth assay (SRB), LNCaP
Protocol: (§1) To determine the IC50 of drug treatments on growth, cells were seeded in 96-well culture plates. Two days after seeding, the cells were treated with increasing concentrations of drugs and incubated for 4 days. Cell number was determined using the SRB assay (Skehan et al, [1990]), and IC50 values were calculated using non-linear regression curve fitting in GraphPad Prism v10. For all other growth experiments, cells were seeded into 96-well plates, and appropriate drugs were added 2 days after seeding. Cells were then incubated in an IncuCyte Zoom live-cell imager, with cell confluency measured every 6 h. Cell doubling times were determined by non-linear curve fitting (exponential growth equation) in GraphPad Prism v10.

MCF7-CDK7-D97N cells = test: Growth assay (SRB), MCF7 CDK7-D97N knock-in; conditions: for % Growth: MCF7 CDK7 D99N, biological reps
Protocol: as §1
(§2) Alt-R^TM S.p. Cas9 nuclease V3, Alt-R CRISPR-Cas9 crRNA, TracrRNA and the donor templates were obtained from Integrated DNA Technologies. […] Cells were treated with 0.7 µM of Alt-R HDR Enhancer V2 to improve HRD efficiency. Sequences of the CRISPRs in the crRNA and the donor templates are shown in the Reagents and tools table. Donor templates were designed to include non-coding substitutions to aid genome DNA PCR for identifying knock-in events and to facilitate cloning; these substitutions are noted in the Reagents and tools table.

22Rv1-CDK7-D97N cells = test: Growth assay (SRB), 22Rv1 CDK7-D97N knock-in pool; conditions: for % Growth: 22Rv1 CDK7 D99N
Protocol: as §1, §2

22Rv1 cells = test: Growth assay (SRB), 22Rv1
Protocol: as §1

22Rv1-SamR cells = test: Growth assay (SRB), Samuraciclib-resistant 22Rv1; conditions: for % Growth: 22Rv1 SamR, 4 days, biological reps
Protocol: as §1

MCF7 cells = test: Growth assay (SRB), MCF7; conditions: for % Growth: biological reps
Protocol: as §1

LNCaP-CDK7-D97N cells = test: Growth assay (SRB), LNCaP CDK7-D97N knock-in; conditions: for % Growth: LNCaP CDK7 D99N
Protocol: as §1, §2

Question: Which results are given for `C=CC(=O)Nc1ccc(C(=O)Nc2[nH]nc3c2CN(C(=O)N[C@H](CN(C)C)c2ccccc2)C3(C)C)cc1` [YKL-5-124]?
Answer: % Growth (LNCaP cells; Log10 Conc. (nM) 0.09): 110.86% and 92.81%; % Growth (LNCaP cells; Log10 Conc. (nM) 0.69): 85.55% and 79.81%; % Growth (LNCaP cells; Log10 Conc. (nM) 3.70): -11.67% and -9.39%; % Growth (LNCaP cells; Log10 Conc. (nM) -0.52): 109.97% and 100.05%; % Growth (LNCaP cells; Log10 Conc. (nM) -1.12): 106.79% and 104.82%; Resistance (Fold) (MCF7-CDK7-D97N cells; MCF7-CDK7-D97N vs MCF7 WT): 1.45 fold; IC50 (MCF7-CDK7-D97N cells; MCF7-CDK7-D97N, 4 days, SRB): 8 nM; % Growth (MCF7-CDK7-D97N cells; Log10 Conc. (nM) 0.09, 4 days): 94.47% and 108.04% and 95.31% and 94.01%; % Growth (MCF7-CDK7-D97N cells; Log10 Conc. (nM) 0.69, 4 days): 69.10% and 46.95% and 78.88% and 82.06%; % Growth (MCF7-CDK7-D97N cells; Log10 Conc. (nM) -0.52, 4 days): 98.82% and 155.20% and 98.59% and 96.08%; % Growth (MCF7-CDK7-D97N cells; Log10 Conc. (nM) -1.12, 4 days): 96.88% and 112.86% and 97.89% and 98.06%; Sensitivity in growth assays (22Rv1-CDK7-D97N cells; 22Rv1-CDK7-D97N vs parental): remaining sensitive; % Growth (22Rv1-CDK7-D97N cells; Log10 Conc. (nM) 0.09): 95.04% and 95.37%; % Growth (22Rv1-CDK7-D97N cells; Log10 Conc. (nM) 0.69): 93.89% and 97.25%; % Growth (22Rv1-CDK7-D97N cells; Log10 Conc. (nM) 1.29): 85.36% and 88.43%; % Growth (22Rv1-CDK7-D97N cells; Log10 Conc. (nM) 1.89): 88.25% and 90.69%; % Growth (22Rv1-CDK7-D97N cells; Log10 Conc. (nM) 2.49): 93.92% and 88.27%; % Growth (22Rv1-CDK7-D97N cells; Log10 Conc. (nM) 3.10): 65.35% and 66.63%; % Growth (22Rv1-CDK7-D97N cells; Log10 Conc. (nM) 3.70): 34.13% and 30.83%; % Growth (22Rv1-CDK7-D97N cells; Log10 Conc. (nM) -0.52): 104.35% and 94.29%; % Growth (22Rv1-CDK7-D97N cells; Log10 Conc. (nM) -1.12): 96.98% and 94.29%; % Growth (22Rv1 cells; 22Rv1, Log10 Conc. (nM) 0.09): 59.88% and 63.28%; % Growth (22Rv1 cells; 22Rv1, Log10 Conc. (nM) 0.69): 24.70% and 25.33%; % Growth (22Rv1 cells; 22Rv1, Log10 Conc. (nM) 1.29): 14.01% and 10.35%; % Growth (22Rv1 cells; 22Rv1, Log10 Conc. (nM) 1.89): 12.24% and 10.17%; % Growth (22Rv1 cells; 22Rv1, Log10 Conc. (nM) 2.49): 11.07% and 8.36%; % Growth (22Rv1 cells; 22Rv1, Log10 Conc. (nM) 3.10): 1.88% and 3.47%; % Growth (22Rv1 cells; 22Rv1, Log10 Conc. (nM) 3.70): 0.13% and -0.45%; % Growth (22Rv1 cells; 22Rv1, Log10 Conc. (nM) -0.52): 83.49% and 90.26%; % Growth (22Rv1 cells; 22Rv1, Log10 Conc. (nM) -1.12): 94.90% and 93.56%; % Growth (22Rv1 cells; 22Rv1, Log10 Conc. (nM) 0.09, 4 days, biological reps): 93.20% and 88.05%; % Growth (22Rv1 cells; 22Rv1, Log10 Conc. (nM) 0.69, 4 days, biological reps): 85.45% and 77.80%; % Growth (22Rv1 cells; 22Rv1, Log10 Conc. (nM) 1.29, 4 days, biological reps): 56.44% and 44.90%; % Growth (22Rv1 cells; 22Rv1, Log10 Conc. (nM) 1.89, 4 days, biological reps): 5.80% and -0.07%; % Growth (22Rv1 cells; 22Rv1, Log10 Conc. (nM) 2.49, 4 days, biological reps): -4.12% and -6.31%; % Growth (22Rv1 cells; 22Rv1, Log10 Conc. (nM) 3.10, 4 days, biological reps): -6.49% and -7.67%; % Growth (22Rv1 cells; 22Rv1, Log10 Conc. (nM) 3.70, 4 days, biological reps): -6.63% and -7.61%; % Growth (22Rv1 cells; 22Rv1, Log10 Conc. (nM) -0.52, 4 days, biological reps): 98.36% and 93.94%; % Growth (22Rv1 cells; 22Rv1, Log10 Conc. (nM) -1.12, 4 days, biological reps): 96.18% and 94.83%; Sensitivity in growth assays (22Rv1-SamR cells; 22Rv1-SamR): remained sensitive; Resistance (Fold), fold increase in IC50 of 22Rv1-SamR relative to 22Rv1 (22Rv1-SamR cells; 22Rv1-SamR vs 22Rv1): 2.0 fold; % Growth (22Rv1-SamR cells; Log10 Conc. (nM) 0.09): 83.75% and 87.25%; % Growth (22Rv1-SamR cells; Log10 Conc. (nM) 0.69): 68.41% and 67.61%; % Growth (22Rv1-SamR cells; Log10 Conc. (nM) 1.29): 30.25% and 41.41%; % Growth (22Rv1-SamR cells; Log10 Conc. (nM) 1.89): -7.69% and -2.73%; % Growth (22Rv1-SamR cells; Log10 Conc. (nM) 2.49): -11.43% and -7.53%; % Growth (22Rv1-SamR cells; Log10 Conc. (nM) 3.10): -11.82% and -8.43%; % Growth (22Rv1-SamR cells; Log10 Conc. (nM) 3.70): -15.22% and -10.53%; % Growth (22Rv1-SamR cells; Log10 Conc. (nM) -0.52): 93.15% and 99.90%; % Growth (22Rv1-SamR cells; Log10 Conc. (nM) -1.12): 93.43% and 95.60%; IC50 (MCF7 cells; 4 days, SRB): 5.5 nM; % Growth (MCF7 cells; Log10 Conc. (nM) 0.09, 4 days): 84.50% and 79.80% and 95.09% and 95.13%; % Growth (MCF7 cells; Log10 Conc. (nM) -0.52, 4 days): 99.55% and 100.47% and 99.34% and 100.40%; % Growth (MCF7 cells; Log10 Conc. (nM) -1.12, 4 days): 92.16% and 94.11% and 96.62% and 97.54%; % Growth (LNCaP-CDK7-D97N cells; Log10 Conc. (nM) 0.09): 95.98% and 86.14%; % Growth (LNCaP-CDK7-D97N cells; Log10 Conc. (nM) 0.69): 91.96% and 46.53%; % Growth (LNCaP-CDK7-D97N cells; Log10 Conc. (nM) -0.52): 97.82% and 101.86%; % Growth (LNCaP-CDK7-D97N cells; Log10 Conc. (nM) -1.12): 92.55% and 85.18%; Sensitivity in growth assays (LNCaP-CDK7-D97N cells; LNCaP-CDK7-D97N vs parental): remaining sensitive
